Where a name gives a salt, the structure may show the parent alone.
Tests used:
CEM cells [1] = experiment: Reactive oxygen species (ROS) assay, DCFH-DA flow cytometry, glutathione depleted with diethyl maleate; format: cell-based, Human; conditions: CEM cells pretreated 16 h with 1, 2.5 and 5 μM compound, then 5 mM DEM 50 min, FIG. 1; for protection against ROS production (DCF fluorescence): compared with α-tocopherol
Protocol: FIG. 1. Representative flow cytometric histograms overlay showing ROS production in CEM cells. Following pretreatment with the indicated compounds (1, 2.5 and 5 μM) for 16 h, the cells were treated with 5 mM diethyl maleate (DEM) for 50 min to deplete glutathione. The cells were washed in phosphate-buffered saline, and suspended in phosphate-buffered saline containing 20 mM glucose. Cells were loaded with 10 μM dichlorodihydrofluoresceindiacetate (DCFH-DA) for 20 min, and the green fluorescence (DCF) was measured by flow cytometry using the FL1-H channel. […] A total of 10000 events were recorded for each sample and analyzed with the CellQuest software (BD Biosciences). Increased DCF fluorescence, a measure of intracellular oxidation and ROS production, was determined by a shift in DCF fluorescence to the right on the x-axis of the FACS histogram. […] Data are expressed as the mean±SEM (n=3). α-TOH is α-tocopherol.
Cellular ROS production can be monitored using 2′,7′-dichlorodihydrofluorescein diacetate (DCFH-DA) (LeBel et al. (1992) Chem. Res. Toxicol. 5, 227-231) (Molecular Probes, Eugene, Oreg., USA), a membrane permeable and oxidant-sensitive fluorescent dye. DCFH-DA is a non-fluorescent derivative of fluorescein that emits fluorescence after being oxidized by hydrogen peroxide and other ROS. The emitted fluorescence is directly proportional to the concentration of hydrogen peroxide. DCFH-DA is nonionic and nonpolar and is easily taken up by cells. Once inside the cell, DCFH-DA is hydrolyzed by cellular esterases to non-fluorescent DCFH which traps the dye in the cell. In the presence of ROS including hydrogen peroxide, DCFH is oxidized to the highly fluorescent compound dichlorofluorescein (DCF). The intracellular DCF fluorescence is used as an index of cellular ROS production.
Cellular oxidative stress was induced by pharmacological depletion of glutathione (GSH) using the chemical diethylmaleate (DEM). ROS production was assessed by monitoring DCF fluorescence. Leukemic CEM cells (ATCC®, catalogue number CRL-2264) were cultured in RPMI (GIBCO, Grand island, NY, USA) with 10% FCS, 2 mM glutamine (HyClone, South Logan, Utah, USA) and 1% penicillin-streptomycin mix antibiotics (Cellgro, Manassas, Va., USA) supplements. CEM cells (5×10^5 cell/mL) were plated (1 mL) in 24-well plate and treated with the invention compounds (final concentration 1, 2.5, and 5 μM), and incubated at 37° C., 5% CO2 for 16 hours. The compounds tested were prepared by first making stock solutions (2.5 mM) in dimethylsulfoxide (DMSO). Cells were treated with 5 mM DEM for 50 minutes and collected by centrifugation at 300×g for 3 min and then washed twice with Hanks' Balanced Salt Solution (HSSB) buffer (Sigma, St. Louis, Mo. USA). Cells were re-suspended in HSSB buffer+20 mM glucose and incubated at 37° C. in the dark for 20 min with 10 μM DCFH-DA. Cells were collected by centrifugation at 300×g for 3 min and then washed twice with HSSB buffer. The samples were analyzed immediately by flow cytometry (Becton-Dickinson FACS Caliber), (Cell Quest software, BD Biosciences) using 488 nm excitation laser and FL1-H channel 538 nm emission filter. In each analysis, 10,000 events were recorded after cell debris were electronically gated out. Results obtained were verified by repeating experiments N=3 independent experiments. Authentic hydrogen peroxide was used as a positive control.

CEM leukemia cells [2] = experiment: Lipid peroxidation, C11-BODIPY581/591 oxidation in cell culture (FACS); format: cell-based, Human; conditions: CEM cells pretreated 16 h with 2.5 and 5 μM compound, then 5 mM DEM 90 min; compared with α-tocopherol; FIG. 2
Protocol: FIG. 2. Comparison of the lipid peroxidation in CEM leukemia cells depleted of glutathione detected by utilizing the oxidation-sensitive fatty acid probe C-11 BODIPY^581/591 using flow cytometry. Increased C-11 BODIPY-green fluorescence (oxidized form), a measure of intracellular lipid peroxidation, was determined by increasing the geometric mean fluorescence intensity (GMFI) of C-11 BODIPY-green relative to the untreated control. A bar graph representing the percentage of the geometric mean fluorescence intensity (GMFI) of C-11 BODIPY-green fluorescence relative to a treated control is shown. Data are expressed as the mean±SEM (n=3). α-TOH is α-tocopherol.
Lipid peroxidation in CEM leukemia cells was detected by utilizing the oxidant-sensitive lipophilic probe C11 BODIPY^581/591. Briefly, CEM cells (5×10^5 cell/mL) were treated with the test compounds at final concentrations of 2.5 and 5 μM, and incubated at 37° C. for 16 h in a humidified atmosphere containing 5% CO2 in air. Cells were treated with 1 μMC11 BODIPY^581/591 in phenol red-free RPMI-1640 media and incubated at 37° C. in the dark for 30 minutes. The cells were washed twice with phosphate buffered saline and oxidative stress was induced with 5 mM DEM in phenol red-free RPMI-1640 media for 90 minutes. Treated cells were collected by centrifugation at 300×g for 3 minutes and then washed twice with phosphate buffered saline. Cells were re-suspended in 250 μL of phosphate buffered saline and were analyzed by FACS (FACS Calibur flow cytometer, Becton Dickinson) to monitor the change in intensity of the C11 BODIPY^581/591-green (oxidized) fluorescence signal. A total of 10000 events were recorded for each sample and analyzed with the CellQuest software (BD Biosciences). The results were verified by repeating the experiments in duplicate. Results are expressed as the relative percentage of treated control (DEM).

CEM leukemia cells [3] = experiment: Mitochondrial membrane potential (Δψm) assay, TMRM staining (FACS); format: cell-based, Human; conditions: CEM cells pretreated 16 h, then 5 mM DEM 120 min, 250 nM TMRM; FIG. 3 and 4
Protocol: FIG. 3. Representative flow cytometric two-dimensional color density dot plot analyses of mitochondrial membrane potential (ΔΨm) in leukemia CEM cells stained with 250 nM TMRM and analyzed using FL2-H channel as described in the experimental section. The percentage of cells with intact ΔΨm is indicated in the top right quadrant of captions. Representative example from at least three independent experiments. A total of 10000 events were recorded for each sample and analyzed with the CellQuest software (BD Biosciences).
FIG. 4. A bar graph representation of means the percentage of cells with intact ΔΨm recorded by FACS. Data are expressed as means±SEM of three independent experiments run in duplicate.
Measurement of Mitochondrial Membrane Potential (Δψm) (FACS). For the determination of Δψm, CEM leukemia cells were pre-treated with or without the test compounds for 16 h. The cells were treated with 5 mM DEM for 120 minutes, collected by centrifugation at 300×g for 3 minutes and then washed twice with phosphate buffered saline. The cells were re-suspended in HSSB buffer and incubated at 37° C. in the dark for 15 minutes with 250 nM TMRM (a cationic dye which accumulates within mitochondria in accordance with the Δψm Nernst potential). Cells were collected by centrifugation at 300×g for 3 minutes and then washed twice with phosphate buffered saline. The samples were analyzed immediately by flow cytometry using 488 nm excitation laser and the FL2-H channel. The results obtained were verified in three independent experiments. The protonophore FCCP (10 μM) was used to dissipate the chemiosmotic proton gradient […] and served as a control for loss of Δψm. […] The results were verified by repeating the experiments in duplicate.

CEM cells [4] = experiment: Trypan blue cell viability assay of DEM-treated cells; format: cell-based, Human; conditions: CEM cells pretreated 16 h, then 5 mM DEM 5.5 h; FIG. 5
Protocol: FIG. 5. Trypan blue exclusion assay of CEM cells treated with test compounds for 16 h before exposure to 5 mM diethyl maleate for 5.5 h. At the time of assay, >80% of the DEM-treated cells were trypan blue positive, whereas in the non-DEM treated control, >95% of the cells were viable. Cell viability was expressed as the percentage of control. Results are an average of three independents trials. α-TOH is α-tocopherol.
Cell viability determined by trypan blue exclusion assay: This technique was used to assess the cytoprotective effects of the invention compounds in cultured cells pharmacologically treated to induce cell death by GSH depletion. DEM was used to deplete cellular GSH and induce oxidative stress. The viability of DEM-treated CEM cells was determined by their ability to exclude the dye trypan blue. Viable cells exclude trypan blue; whereas, non-viable cells take up the dye and stain blue. Briefly, CEM lymphoblasts (CCL-119) were grown in RPMI 1640 medium (GIBCO, Grand island, NY, USA) supplemented with 10% fetal calf serum, 2 mM glutamine (HyClone, South Logan, Utah, USA), 1% penicillin-streptomycin mix (Cellgro, Manassas, Va., USA). Cells were seeded at a density of 5×10^5 cells/mL and treated with different concentrations of the invention compounds. Cells were incubated at 37° C. in a humidified atmosphere of 5% CO2 in air for 16 hours. After pre-incubation, the cells were treated with 5 mM DEM for 5.5 h. Cell viability was determined by staining cells with 0.4% trypan blue using a hemacytometer. At least 500 cells were counted for each experimental group. At the time of assay, >80% of DEM-treated cells were trypan blue positive; whereas, in non-DEM treated control cell cultures>95% cells were viable. Cell viability was expressed as the percentage of control. Data are expressed as means±S.E.M (n=3).

[5] = James et al. (2005) J Biol. Chem. 280, 21295-21312; cited from earlier work

| SMILES | protection against ROS production (DCF fluorescence) (CEM cells [1]) | protection against lipid (membrane) peroxidation (C11-BODIPY-green fluorescence) (CEM leukemia cells [2]) | prevention of loss of Δψm (mitochondrial depolarization) (CEM leukemia cells [3]) | intensity of DCF fluorescence (CEM cells [1]) | cytoprotection (cell viability, trypan blue exclusion) (CEM cells [4]) | melting point [°C] | calculated octanol-water partition coefficient [5] |
| --- | --- | --- | --- | --- | --- | --- | --- |
| CCCCCc1nc2c(c(C)c1O)CCN2C [Compound 1a, 1,4-Dimethyl-6-pentyl-2,3-dihydro-1H-pyrrolo[2,3-b]pyridin-5-ol trifluoroacetic acid salt] | reduced protection | no protection | less effective in preventing mitochondrial depolarization |  |  |  |  |
| CCCCCCCCCCc1nc2c(c(C)c1O)CCN2C [Compound 1b, 1,4-Dimethyl-6-decyl-2,3-dihydro-1H-pyrrolo[2,3-b]pyridin-5-ol trifluoro acetic acid salt] | significantly better protection than α-tocopherol | significantly better protection than was achieved with α-tocopherol | the most effective in preventing mitochondrial depolarization | significant decrease in the intensity of DCF fluorescence in a dose-dependent manner | more effective in cytoprotection than was α-TOH |  |  |
| CCCCCCCCCCCCCCCCc1nc2c(c(C)c1O)CCN2C [Compound 1c, 1,4-Dimethyl-6-hexadecyl-2,3-dihydro-1H-pyrrolo[2,3-b]pyridin-5-ol trifluoroacetic acid salt] | intermediate protection | Reduced protection | less effective in preventing mitochondrial depolarization |  |  |  |  |
| CCCCCc1nc2c(c(C)c1OC(C)=O)CCN2C [Compound 2a, 1,4-Dimethyl-6-pentyl-2,3-dihydro-1H-pyrrolo[2,3-b]pyridin-5-yl acetate] | reduced protection | no protection | less effective in preventing mitochondrial depolarization |  |  |  |  |
| CCCCCCCCCCc1nc2c(c(C)c1OC(C)=O)CCN2C [Compound 2b, 1,4-Dimethyl-6-decyl-2,3-dihydro-1H-pyrrolo[2,3-b]pyridin-5-yl acetate] | significantly better protection than α-tocopherol | results comparable to α-TOH | the most effective in preventing mitochondrial depolarization | significant decrease in the intensity of DCF fluorescence in a dose-dependent manner | more effective in cytoprotection than was α-TOH |  |  |
| CCCCCCCCCCCCCCCCc1nc2c(c(C)c1OC(C)=O)CCN2C [Compound 2c, 1,4-Dimethyl-6-hexadecyl-2,3-dihydro-1H-pyrrolo[2,3-b]pyridin-5-yl acetate] | intermediate protection | Reduced protection | less effective in preventing mitochondrial depolarization |  |  |  |  |
| CCCCCCCCCCCCCCCCc1cc(C)c2c(n1)N(C)CC2 [Example 10, 1,4-Dimethyl-6-hexadecyl-2,3-dihydro-1H-pyrrolo[2,3-b]pyridine] |  |  |  |  |  | 43 to 45 |  |
| COC1=C(OC)C(=O)C(C/C=C(\C)CC/C=C(\C)CC/C=C(\C)CC/C=C(\C)CC/C=C(\C)CC/C=C(\C)CC/C=C(\C)CC/C=C(\C)CC/C=C(\C)CCC=C(C)C)=C(C)C1=O [coenzyme Q10] |  |  |  |  |  |  | > 10^20 |
| Cc1c(C)c2c(c(C)c1O)CC[C@@](C)(CCC[C@H](C)CCC[C@H](C)CCCC(C)C)O2 [α-tocopherol, reference compound] |  |  |  |  | significantly reduced cell death |  |  |
